# Measurements: patent US20240108740A1, “THERAPEUTIC COMPOSITIONS INCLUDING SPN10 AND USES THEREOF” (Stealth BioTherapeutics Inc., priority 2022, published 2024)
# Residues, ends and D or L forms follow the SMILES beside them.
# Assays:
# [1] = test system: Human low density lipoprotein (LDL); experiment: Example 18: LDL oxidation (conjugated dienes at 234 nm); type: biochemical; conditions: 10 mM, 5 hours at 37° C.
# Procedure: Human low density lipoprotein (LDL) will be prepared fresh from stored plasma. LDL oxidation will be induced catalytically by the addition of 10 mM […], and the formation of conjugated dienes will be monitored at 234 nm for 5 hours at 37° C. (B. Moosmann and C. Behl, Mol. Pharmacol. 61:260-268 (2002).
# Sprague-Dawley rats = experiment: Example 42: CCl4-induced chronic nephrotoxicity; type: in vivo, rat
# Excerpt: […]
# Renal Histology: Kidneys will be fixed in 10% neutral-buffered formalin and embedded in paraffin wax for sectioning. Three-micron sections will be stained with hematoxylin-eosin (H&E) and analyzed by light microscopy by a certified pathologist.
# [2] = test system: renal ischemia-reperfusion (IR) injury in rats; experiment: Mitochondrial respiration and ATP synthesis after renal ischemia-reperfusion injury; type: in vivo, rat; conditions: 45 minutes renal artery occlusion, 20 minutes or 1 hour reperfusion
# Procedure: Animals will be subjected to bilateral occlusion of renal artery for 45 minutes followed by 20 minutes or 1 hour of reperfusion. Subjects will receive saline vehicle, a peptide conjugate (2.0 mg/kg s.c.), an aromatic-cationic peptide (an equivalent molar dose of aromatic-cationic peptide based on concentration of the aromatic-cationic peptide administered in the peptide conjugate group) SPN10 (an equivalent molar dose of SPN10 based on concentration of SPN10 administered in the peptide conjugate group), or SPN10(s) in combination with aromatic-cationic peptides (e.g., an equivalent molar dose of SPN10 based on the concentration of SPN10 administered in the peptide conjugate treatment group and an equivalent molar dose of aromatic-cationic peptide based on the concentration of aromatic-cationic peptide administered in the peptide conjugate treatment group) 30 minutes before ischemia and again at the time of reperfusion (n=4-5 in each group). It is anticipated that the peptide conjugate, aromatic-cationic peptide or SPN10(s) (with or without aromatic-cationic peptides) will improve oxygen consumption and ATP synthesis.
# vincristine-related pain = experiment: Treatment of vincristine-induced hyperalgesia in humans; type: in vivo, human; conditions: s.c., once daily for 14 days
# Excerpt: Patients will be recruited to the study as they present in clinic with chronic (>6 months' duration), spontaneous, ongoing, vincristine-related pain. Those enrolled will rate their daily maximum level of pain at 4 or greater on a visual analogue scale (VAS). The patients will be screened for their willingness to enroll in the study, and informed consent will be obtained. Healthy subjects will also be recruited for collection of comparison data. No subjects in either the patient or comparison group will have known risk factors for any other cause of peripheral neuropathy, including diabetes, AIDS, chronic alcoholism, or previous radiation exposure. […] Touch and Sharpness Detection Thresholds-Touch detection thresholds will be determined with von Frey monofilaments using the up/down method as previously reported. […] The force of the filament detected four consecutive times will be assigned as the touch detection threshold. Sharpness detection will be determined using weighted 30-gauge metal cylinders. […] The percentages of each reply will be calculated and then combined into group grand means for comparison. The 50% sharpness detection threshold will be calculated as the weighted needle that caused five or more sharp responses after 10 consecutive stimuli. Grooved Pegboard Test-Manual dexterity will be assessed with the grooved pegboard test. […]
compound,measurement,setting,value
"N=C(N)NCCC[C@H](NC(=O)[C@@H](N)Cc1c[nH]c2ccccc12)C(=O)N[C@@H](Cc1c[nH]c2ccccc12)C(=O)N[C@@H](CCCCN)C(N)=O [SPN10, H-L-Trp-L-Arg-L-Trp-L-Lys-NH2] (H-WRWK-NH2)",rate of LDL oxidation,[1],dose-dependently inhibit the rate of LDL oxidation
same,histopathological changes (H&E) compared to untreated control animals of Group (1),"Sprague-Dawley rats; rat, in vivo",no significant histopathological changes
same,protection of renal tubules from CCl4 nephrotoxicity,"Sprague-Dawley rats; s.c. 5 days per week, 7 weeks",protect renal tubules from CCl4 nephrotoxicity
same,oxygen consumption and ATP synthesis,[2],improve
same,hyperalgesia symptoms,vincristine-related pain,reduction
